According to patent US8551991B2, “1,2,3,4-tetrahydroquinoxaline derivative having glucocorticoid receptor binding activity” (Santen Pharmaceutical Co., Ltd., priority 2006, dated 2013):

Biological target: T1, Recombinant human GR (Homo sapiens, UniProt P04150)
T1 construct: purchased Invitrogen P2816
T1 sequence (P04150 1-777): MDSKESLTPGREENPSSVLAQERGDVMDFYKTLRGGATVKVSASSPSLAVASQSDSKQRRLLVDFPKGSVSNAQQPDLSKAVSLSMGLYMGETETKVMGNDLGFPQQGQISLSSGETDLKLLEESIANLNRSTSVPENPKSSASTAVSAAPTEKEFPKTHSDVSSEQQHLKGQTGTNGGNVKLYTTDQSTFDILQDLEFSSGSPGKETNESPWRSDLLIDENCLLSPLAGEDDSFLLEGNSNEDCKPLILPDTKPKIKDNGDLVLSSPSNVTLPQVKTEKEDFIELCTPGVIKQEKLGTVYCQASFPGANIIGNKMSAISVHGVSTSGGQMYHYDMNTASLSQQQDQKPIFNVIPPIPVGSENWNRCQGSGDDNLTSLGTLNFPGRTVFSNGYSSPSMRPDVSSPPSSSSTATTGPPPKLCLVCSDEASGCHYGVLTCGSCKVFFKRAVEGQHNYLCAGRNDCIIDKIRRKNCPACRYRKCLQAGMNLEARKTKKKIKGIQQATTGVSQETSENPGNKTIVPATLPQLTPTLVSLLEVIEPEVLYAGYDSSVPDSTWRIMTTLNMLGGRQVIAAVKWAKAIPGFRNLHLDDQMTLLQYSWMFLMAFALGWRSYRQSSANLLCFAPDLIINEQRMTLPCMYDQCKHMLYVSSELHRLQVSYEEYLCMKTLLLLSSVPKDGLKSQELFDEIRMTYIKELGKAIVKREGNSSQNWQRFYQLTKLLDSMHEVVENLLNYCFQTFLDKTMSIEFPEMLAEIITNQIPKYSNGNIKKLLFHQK
Assay: GR competitor assay by fluorescence polarization (binding activity to glucocorticoid receptor)
Conditions: 20 μM test compound solution, 25 μL per well plus 12.5 μL each of 4×GS1 and 4×GR solution; Fluormone GS1 ligand; positive control 2 mM dexamethasone; read-out: GR Binding ratio (%)
Description: 1. Evaluation Test for Binding Activity to Glucocorticoid Receptor (Hereinafter Referred to as “GR”)
In order to evaluate a binding activity to GR, a receptor competitor assay was carried out by a fluorescence polarization method. In the assay, a GR competitor assay kit (manufactured by Invitrogen, cat No. P2816) was used, and a procedure was carried out according to the protocol attached to the kit. Hereinafter, the specific method will be described.
GR screening buffer: A buffer containing 10 mM potassium phosphate (pH 7.4), 20 mM sodium molybdate (Na2MoO4), 0.1 mM ethylene diamine tetraacetic acid (EDTA), 5 mM dithiothreitol (DTT), 0.1 mM stabilizing peptide and 2% dimethylsulfoxide was prepared.
4×GS1 solution: Fluormone™ GS1, which is a fluorescent glucocorticoid ligand, was diluted with GR screening buffer, whereby a 4 nM solution was prepared.
4×GR solution: Recombinant human GR was diluted with GR screening buffer, whereby a 16 nM solution was prepared.
After a test compound was dissolved in dimethylsulfoxide, the resulting solution was diluted with GR screening buffer, whereby a 20 μM test compound solution was prepared.
1) The test compound solution was added in an amount of 25 μL into each well of a 96-well plate, and then, 4×GS1 solution and 4×GR solution were added in an amount of 12.5 μL into each well, respectively.
2) The plate was incubated in a dark place at room temperature for 2 to 4 hours.
3) By using a multimode plate reader, Analyst™ HT (manufactured by LJL Biosystems), fluorescence polarization of each well was measured. As the blank, a well containing GR screening buffer in place of the test compound and 4×GS1 solution was used.
4) The same procedure as that in the above 1) to 3) was carried out except that GR screening buffer was used in place of the test compound solution, and the obtained result was taken as the negative control.
5) The same procedure as that in the above 1) to 3) was carried out except that 2 mM dexamethasone was used in place of the test compound solution, and the obtained result was taken as the positive control.
A GR binding ratio (%) was calculated from the following equation.
GR binding ratio (%)=100×[1-(fluorescence polarization of test compound solution-fluorescence polarization of positive control solution)/(fluorescence polarization of negative control solution—fluorescence polarization of positive control solution)]

SMILES | inhibition at 10 µM
COc1cc(F)ccc1-c1ccc2c(c1COc1cc(F)ccc1C)N(C)C(=O)C(C)(C)N2 [Compound 6-12] | 100%
COc1cc(OC(=O)Nc2cccnc2)ccc1-c1ccc2c(c1COc1cc(F)ccc1C)N(C)C(=O)C(C)(C)N2 [Compound 17-5, 8-(5-Fluoro-2-methylphenoxymethyl)-7-[2-methoxy-4-(pyridin-3-ylaminocarbonyloxy)phenyl]-1,3,3-trimethyl-3,4-dihydro-1H-quinoxalin-2-one] | 91%
COc1cc(OC(=O)c2ccccc2SC)ccc1-c1ccc2c(c1COC(=O)c1ccc(C)s1)N(C)C(=O)C(C)(C)N2 [Compound 15-24] | 94%
COc1cc(OC(=O)c2cccnc2C)ccc1-c1ccc2c(c1COc1cc(F)ccc1C)N(C)C(=O)C(C)(C)N2 [Compound 15-2] | 100%
COc1cc(OC(=O)Oc2ccccc2)ccc1-c1ccc2c(c1COc1cc(F)ccc1C)N(C)C(=O)C(C)(C)N2 [Compound 14-36] | 88%
COc1ccc(F)cc1-c1ccc2c(c1COC(=O)c1ccccc1)N(C)C(=O)C(C)(C)N2 [Compound 5-1, 8-Benzoyloxymethyl7-(5-fluoro-2-methoxyphenyl)-1,3,3-trimethyl-3,4-dihydro-1H-quinoxalin-2-one] | 100%
COc1cc(OC(=O)c2ccoc2)ccc1-c1ccc2c(c1COc1cc(F)ccc1C)N(C)C(=O)C(C)(C)N2 [Compound 14-11] | 100%
COc1cc(OC(=O)c2ccccc2C)ccc1-c1ccc2c(c1COC(=O)c1cccc(F)c1)N(C)C(=O)C(C)(C)N2 [Compound 5-24] | 100%
COc1cc(OC(=O)Nc2ccccc2)ccc1-c1ccc2c(c1COC(=O)c1ccc(C)s1)N(C)C(=O)C(C)(C)N2 [Compound 17-16, 7-(2-Methoxy-4-phenylaminocarbonyloxyphenyl)-8-(5-methylthiophen-2-ylcarbonyloxymethyl)-1,3,3-trimethyl-3,4-dihydro-1H-quinoxalin-2-one] | 88%
CSc1ccccc1-c1ccc2c(c1COc1cc(F)ccc1C)N(C)C(=O)C(C)(C)N2 [Compound 6-10] | 100%
COc1cc(F)ccc1-c1ccc2c(c1COc1cc([N+](=O)[O-])ccc1C)N(C)C(=O)C(C)(C)N2 [Compound 3-7] | 100%
COc1ccccc1NCc1c(-c2ccc(O)cc2OC)ccc2c1N(C)C(=O)C(C)(C)N2 [Compound 21-3, 7-(4-Hydroxy-2-methoxyphenyl)-8-(2-methoxyphenylaminomethyl)-1,3,3-trimethyl-3,4-dihydro-1H-quinoxalin-2-one] | 100%
COc1ccc(C(=O)OCc2c(-c3ccc(OC(=O)c4ccccc4C)cc3OC)ccc3c2N(C)C(=O)C(C)(C)N3)cc1 [Compound 5-21] | 100%
COc1cccc(F)c1-c1ccc2c(c1COc1cc(F)ccc1C)N(C)C(=O)C(C)(C)N2 [Compound 6-23] | 98%
Cc1ccc(F)cc1OCc1c(-c2ccccc2Cl)ccc2c1N(C)C(=O)C(C)(C)N2 [Compound 6-4] | 98%
COc1ccc(Cl)cc1-c1ccc2c(c1CNc1ccccc1C(C)C)N(C)C(=O)C(C)(C)N2 [Compound 4-10] | 100%
COc1ccc([N+](=O)[O-])cc1OCc1c(-c2ccc(F)cc2OC)ccc2c1N(C)C(=O)C(C)(C)N2 [Compound 3-16] | 100%
COc1ccc(C(F)(F)F)cc1-c1ccc2c3c1CN(c1ccccc1OC)CN3C(=O)C(C)(C)N2 [Compound 6-38] | 100%
COc1cc(OC(=O)c2cccc(C(C)=O)c2)ccc1-c1ccc2c(c1COc1cc(F)ccc1C)N(C)C(=O)C(C)(C)N2 [Compound 15-13] | 100%
COc1cc(N(C)C(C)=O)ccc1-c1ccc2c(c1COc1cc(F)ccc1C)N(C)C(=O)C(C)(C)N2 [Compound 16-3, 7-[4-(N-Acetyl-N-methylamino)-2-methoxyphenyl]-8-(5-fluoro-2-methylphenoxymethyl)-1,3,3-trimethyl-3,4-dihydro-1H-quinoxalin-2-one] | 86%
COc1cc(NC(=O)c2ccncc2)ccc1-c1ccc2c(c1COc1cc(F)ccc1C)N(C)C(=O)C(C)(C)N2 [Compound 14-21, 8-(5-fluoro-2-methylphenoxymethyl)-7-[2-methoxy-4-(pyridin-4-ylcarbonylamino)phenyl]-1,3,3-trimethyl-3,4-dihydro-1H-quinoxalin-2-one] | 100%
COc1cc(OC(=O)c2ccccc2OC(C)=O)ccc1-c1ccc2c(c1COc1cc(F)ccc1C)N(C)C(=O)C(C)(C)N2 [Compound 15-4] | 98%
COc1ccc(OC(=O)c2ccccc2)cc1-c1ccc2c(c1COc1cc(F)ccc1C)N(C)C(=O)C(C)(C)N2 [Compound 6-32] | 89%
COc1ccc([N+](=O)[O-])cc1-c1ccc2c(c1COc1cc(F)ccc1C)N(C)C(=O)C(C)(C)N2 [Compound 6-27, 8-(5-fluoro-2-methylphenoxymethyl)-7-(2-methoxy-5-nitrophenyl)-1,3,3-trimethyl-3,4-dihydro-1H-quinoxalin-2-one] | 100%
COC(=O)c1cccc(C(=O)Oc2ccc(-c3ccc4c(c3COc3cc(F)ccc3C)N(C)C(=O)C(C)(C)N4)c(OC)c2)c1 [Compound 15-1, 8-(5-Fluoro-2-methylphenoxymethyl)-7-[2-methoxy-4-(3-methoxycarbonylbenzoyloxy)phenyl]-1,3,3-trimethyl-3,4-dihydro-1H-quinoxalin-2-one] | 100%
COc1cc(O)ccc1-c1ccc2c(c1COC(=O)c1ccc(C)s1)N(C)C(=O)C(C)(C)N2 [Compound 13-2, 7-(4-Hydroxy-2-methoxyphenyl)-8-(5-methylthiophen-2-ylcarbonyloxymethyl)-1,3,3-trimethyl-3,4-dihydro-1H-quinoxalin-2-one] | 91%
COc1ccccc1NCc1c(-c2ccc(OC(=O)c3cscn3)cc2OC)ccc2c1N(C)C(=O)C(C)(C)N2 [Compound 21-13, 8-(2-Methoxyphenylaminomethyl)-7-[2-methoxy-4-(thiazol-4-ylcarbonyloxy)phenyl]-1,3,3-trimethyl-3,4-dihydro-1H-quinoxalin-2-one] | 94%
COc1ccc(F)cc1-c1ccc2c(c1COc1ccccc1)N(C)C(=O)C(C)(C)N2 [Compound 5-9] | 100%
COc1cc(OC(=O)c2ccccc2Cl)ccc1-c1ccc2c(c1COc1cc(F)ccc1C)N(C)C(=O)C(C)(C)N2 [Compound 14-4] | 100%
